Measured values reported in ChEMBL document CHEMBL2346512, “Inhibitory effect of 4,4'-dihydroxy-α-truxillic acid derivatives on NO production in lipopolysaccharide-induced RAW 264.7 macrophages and exploration of structure-activity relationships” (Bioorg Med Chem Lett, 2013).
pIC50: −log10 of the molar value. Values belong to the compound of their own block, whether it stands above or below them.

Assays:
[1] = system: RAW264.7; assay: Inhibition of LPS-induced NO production in mouse RAW264.7 cells at 25 uM pretreated for 20 mins before LPS challenge measured after 18 hrs post LPS challenge by spectrophotometry; assay type: functional
[2] = Cytotoxicity against mouse RAW264.7 cells assessed as cell viability at 25 uM after 18 hrs by CCK-8 assay; assay type: cell-based; conditions: read-out: Activity
[3] = system: RAW264.7; assay: Cytotoxicity against mouse RAW264.7 cells assessed as cell viability after 18 hrs by CCK-8 assay; assay type: cell-based; conditions: RAW264.7, 18 h
[4] = system: RAW264.7; assay: Inhibition of LPS-induced NO production in mouse RAW264.7 cells pretreated for 20 mins before LPS challenge measured after 18 hrs post LPS challenge by spectrophotometry; assay type: functional, cell-based
[5] = system: RAW264.7; assay: Cytotoxicity against mouse RAW264.7 cells assessed as cell viability up to 50 uM after 18 hrs by CCK-8 assay; assay type: cell-based; conditions: raw264.7, 18 h
[6] = system: RAW264.7; assay: Inhibition of LPS-induced NO production in mouse RAW264.7 cells at 100 uM pretreated for 20 mins before LPS challenge measured after 18 hrs post LPS challenge by spectrophotometry; assay type: functional
[7] = system: RAW264.7; assay: Inhibition of LPS-induced NO production in mouse RAW264.7 cells at 50 uM pretreated for 20 mins before LPS challenge measured after 18 hrs post LPS challenge by spectrophotometry; assay type: functional
[8] = system: RAW264.7; assay: Inhibition of LPS-induced NO production in mouse RAW264.7 cells at 12.5 uM pretreated for 20 mins before LPS challenge measured after 18 hrs post LPS challenge by spectrophotometry; assay type: functional

SMILES: O=C(OCCC1CCCCC1)[C@H]1[C@H](c2ccc(O)cc2)[C@H](C(=O)OCCC2CCCCC2)[C@H]1c1ccc(O)cc1
inhibition at 25 µM [1]: 19.1%
viability at 18 h, 25 µM [2]: 100%

pIC50 [4]: 4.79
SMILES: O=C(OC1CCCCC1)[C@H]1[C@H](c2ccc(O)cc2)[C@H](C(=O)OC2CCCCC2)[C@H]1c1ccc(O)cc1
pIC50 [3]: 4.48
inhibition at 25 µM [1]: 76%
viability at 18 h, 25 µM [2]: 67.8%

SMILES: O=C(OC1CCCCCC1)[C@H]1[C@H](c2ccc(O)cc2)[C@H](C(=O)OC2CCCCCC2)[C@H]1c1ccc(O)cc1
inhibition at 25 µM [1]: 16%
viability at 18 h, 25 µM [2]: 100%

SMILES: O=C(OCC1CCCO1)[C@H]1[C@H](c2ccc(O)cc2)[C@H](C(=O)OCC2CCCO2)[C@H]1c1ccc(O)cc1 (stereo not given in full)
inhibition at 25 µM [1]: 10.2%
viability at 18 h, 25 µM [2]: 96%

SMILES: O=C(OC1CCOCC1)[C@H]1[C@H](c2ccc(O)cc2)[C@H](C(=O)OC2CCOCC2)[C@H]1c1ccc(O)cc1
inhibition at 25 µM [1]: 18%
viability at 18 h, 25 µM [2]: 100%

SMILES: CC(C)(C)C1CCC(OC(=O)[C@H]2[C@H](c3ccc(O)cc3)[C@H](C(=O)OC3CCC(C(C)(C)C)CC3)[C@H]2c2ccc(O)cc2)CC1 (stereo not given in full)
inhibition at 25 µM [1]: 0%
viability at 18 h, 25 µM [2]: 100%

pIC50 [4]: 4.76
SMILES: CC(C)[C@@H]1CC[C@@H](C)C[C@H]1OC(=O)[C@H]1[C@H](c2ccc(O)cc2)[C@H](C(=O)O[C@@H]2C[C@H](C)CC[C@H]2C(C)C)[C@H]1c1ccc(O)cc1
Activity [5]: Non-toxic
pIC50 [3]: 4.22
inhibition at 25 µM [1]: 72%
viability at 18 h, 25 µM [2]: 98%

SMILES: CC(C)[C@H]1CC[C@H](C)C[C@@H]1OC(=O)[C@H]1[C@H](c2ccc(O)cc2)[C@H](C(=O)O[C@H]2C[C@@H](C)CC[C@@H]2C(C)C)[C@H]1c1ccc(O)cc1
inhibition at 25 µM [1]: 17.4%
viability at 18 h, 25 µM [2]: 90%

pIC50 [4]: 4.54
SMILES: O=C(OCC1CCCCC1)[C@H]1[C@H](c2ccc(O)cc2)[C@H](C(=O)OCC2CCCCC2)[C@H]1c1ccc(O)cc1
pIC50 [3]: 4.75
inhibition at 25 µM [1]: 46.9%
viability at 18 h, 25 µM [2]: 37%

SMILES: CCC[C@H]1CC[C@H]([C@H]2CC[C@H](OC(=O)[C@H]3[C@H](c4ccc(O)cc4)[C@H](C(=O)O[C@H]4CC[C@H]([C@H]5CC[C@H](CCC)CC5)CC4)[C@H]3c3ccc(O)cc3)CC2)CC1
inhibition at 25 µM [1]: 0%
viability at 18 h, 25 µM [2]: 100%

SMILES: CCC[C@H]1CC[C@H]([C@H]2CC[C@@H](OC(=O)[C@H]3[C@H](c4ccc(O)cc4)[C@H](C(=O)O[C@H]4CC[C@@H]([C@H]5CC[C@H](CCC)CC5)CC4)[C@H]3c3ccc(O)cc3)CC2)CC1
inhibition at 25 µM [1]: 0%
viability at 18 h, 25 µM [2]: 100%

SMILES: O=C(OCC12CC3CC(CC(C3)C1)C2)[C@H]1[C@H](c2ccc(O)cc2)[C@H](C(=O)OCC23CC4CC(CC(C4)C2)C3)[C@H]1c1ccc(O)cc1
inhibition at 25 µM [1]: 27.8%
viability at 18 h, 25 µM [2]: 98%

SMILES: CC(C)OCCOC(=O)[C@H]1[C@H](c2ccc(O)cc2)[C@H](C(=O)OCCOC(C)C)[C@H]1c1ccc(O)cc1
inhibition at 25 µM [1]: 22%
viability at 18 h, 25 µM [2]: 100%

SMILES: CCCOCCOC(=O)[C@H]1[C@H](c2ccc(O)cc2)[C@H](C(=O)OCCOCCC)[C@H]1c1ccc(O)cc1
inhibition at 25 µM [1]: 23.6%
viability at 18 h, 25 µM [2]: 100%

pIC50 [4]: 4.49
SMILES: CCCCOCCOC(=O)[C@H]1[C@H](c2ccc(O)cc2)[C@H](C(=O)OCCOCCCC)[C@H]1c1ccc(O)cc1
pIC50 [3]: 4.35
inhibition at 25 µM [1]: 45.8%
viability at 18 h, 25 µM [2]: 95%

SMILES: COCCOCCOC(=O)[C@H]1[C@H](c2ccc(O)cc2)[C@H](C(=O)OCCOCCOC)[C@H]1c1ccc(O)cc1
inhibition at 25 µM [1]: 21.9%
viability at 18 h, 25 µM [2]: 100%

SMILES: COCCOCCOCCOC(=O)[C@H]1[C@H](c2ccc(O)cc2)[C@H](C(=O)OCCOCCOCCOC)[C@H]1c1ccc(O)cc1
inhibition at 25 µM [1]: 11.9%
viability at 18 h, 25 µM [2]: 100%

SMILES: CCOCCOCCOCCOC(=O)[C@H]1[C@H](c2ccc(O)cc2)[C@H](C(=O)OCCOCCOCCOCC)[C@H]1c1ccc(O)cc1
inhibition at 25 µM [1]: 15.7%
viability at 18 h, 25 µM [2]: 100%

SMILES: O=C(OCCF)[C@H]1[C@H](c2ccc(O)cc2)[C@H](C(=O)OCCF)[C@H]1c1ccc(O)cc1
inhibition at 25 µM [1]: 13%
viability at 18 h, 25 µM [2]: 100%

pIC50 [4]: 4.68
SMILES: O=C(OCC(F)(F)F)[C@H]1[C@H](c2ccc(O)cc2)[C@H](C(=O)OCC(F)(F)F)[C@H]1c1ccc(O)cc1
pIC50 [3]: 4.41
inhibition at 25 µM [1]: 65.3%
viability at 18 h, 25 µM [2]: 78%

SMILES: O=C(OCC(F)(F)C(F)F)[C@H]1[C@H](c2ccc(O)cc2)[C@H](C(=O)OCC(F)(F)C(F)F)[C@H]1c1ccc(O)cc1
inhibition at 25 µM [1]: 15.7%
viability at 18 h, 25 µM [2]: 100%

pIC50 [4]: 4.65
SMILES: O=C(OC(C(F)(F)F)C(F)(F)F)[C@H]1[C@H](c2ccc(O)cc2)[C@H](C(=O)OC(C(F)(F)F)C(F)(F)F)[C@H]1c1ccc(O)cc1
pIC50 [3]: 4.75
inhibition at 25 µM [1]: 55%
viability at 18 h, 25 µM [2]: 32.6%

SMILES: CSCCOC(=O)[C@H]1[C@H](c2ccc(O)cc2)[C@H](C(=O)OCCSC)[C@H]1c1ccc(O)cc1
inhibition at 25 µM [1]: 24.4%
viability at 18 h, 25 µM [2]: 100%

SMILES: O=C(OCCI)[C@H]1[C@H](c2ccc(O)cc2)[C@H](C(=O)OCCI)[C@H]1c1ccc(O)cc1
inhibition at 25 µM [1]: 49.9%
viability at 18 h, 25 µM [2]: 98%

SMILES: C=C(C)COC(=O)[C@H]1[C@H](c2ccc(O)cc2)[C@H](C(=O)OCC(=C)C)[C@H]1c1ccc(O)cc1
inhibition at 25 µM [1]: 27.9%
viability at 18 h, 25 µM [2]: 100%

pIC50 [4]: 4.75
SMILES: CCC/C=C/COC(=O)[C@H]1[C@H](c2ccc(O)cc2)[C@H](C(=O)OC/C=C/CCC)[C@H]1c1ccc(O)cc1
pIC50 [3]: 4.71
inhibition at 25 µM [1]: 72.3%
viability at 18 h, 25 µM [2]: 40%

SMILES: CC(C)=CCC/C(C)=C\COC(=O)[C@H]1[C@H](c2ccc(O)cc2)[C@H](C(=O)OC/C=C(/C)CCC=C(C)C)[C@H]1c1ccc(O)cc1
inhibition at 25 µM [1]: 42.6%
viability at 18 h, 25 µM [2]: 56%

SMILES: CC(C)=CCC/C(C)=C/COC(=O)[C@H]1[C@H](c2ccc(O)cc2)[C@H](C(=O)OC/C=C(\C)CCC=C(C)C)[C@H]1c1ccc(O)cc1
inhibition at 25 µM [1]: 33.9%
viability at 18 h, 25 µM [2]: 80%

SMILES: C=C(C)C1CC=C(COC(=O)[C@H]2[C@H](c3ccc(O)cc3)[C@H](C(=O)OCC3=CCC(C(=C)C)CC3)[C@H]2c2ccc(O)cc2)CC1 (stereo not given in full)
inhibition at 25 µM [1]: 36.1%
viability at 18 h, 25 µM [2]: 78%

SMILES: C#CCCOC(=O)[C@H]1[C@H](c2ccc(O)cc2)[C@H](C(=O)OCCC#C)[C@H]1c1ccc(O)cc1
inhibition at 25 µM [1]: 28.3%
viability at 18 h, 25 µM [2]: 100%

SMILES: C#CCOCCOC(=O)[C@H]1[C@H](c2ccc(O)cc2)[C@H](C(=O)OCCOCC#C)[C@H]1c1ccc(O)cc1
inhibition at 25 µM [1]: 13.5%
viability at 18 h, 25 µM [2]: 100%

SMILES: CC(C)(C)[Si](C)(C)Oc1ccc(/C=C/C(=O)O)cc1
inhibition at 100 µM [6]: 6.5%
inhibition at 25 µM [1]: 0%
inhibition at 50 µM [7]: 2.2%
inhibition at 12.5 µM [8]: 0%

SMILES: O=C(O)[C@H]1[C@H](c2ccc(O)cc2)[C@H](C(=O)O)[C@H]1c1ccc(O)cc1
inhibition at 25 µM [1]: 5.5%
viability at 18 h, 25 µM [2]: 100%

SMILES: O=C(OCC1CC1)[C@H]1[C@H](c2ccc(O)cc2)[C@H](C(=O)OCC2CC2)[C@H]1c1ccc(O)cc1
inhibition at 25 µM [1]: 33.9%
viability at 18 h, 25 µM [2]: 95%

pIC50 [4]: 4.70
SMILES: O=C(OC1CCC1)[C@H]1[C@H](c2ccc(O)cc2)[C@H](C(=O)OC2CCC2)[C@H]1c1ccc(O)cc1
pIC50 [3]: 4.49
inhibition at 25 µM [1]: 55%
viability at 18 h, 25 µM [2]: 62.6%

pIC50 [4]: 4.68
SMILES: O=C(OC1CCCC1)[C@H]1[C@H](c2ccc(O)cc2)[C@H](C(=O)OC2CCCC2)[C@H]1c1ccc(O)cc1
pIC50 [3]: 4.51
inhibition at 25 µM [1]: 62.1%
viability at 18 h, 25 µM [2]: 58%

SMILES: O=C(O)/C=C/c1ccc(O)cc1 [COUMARIC ACID]
inhibition at 100 µM [6]: 13.2%
inhibition at 25 µM [1]: 0%
inhibition at 50 µM [7]: 6.5%
inhibition at 12.5 µM [8]: 0%

SMILES: N=C(N)NN [PIMAGEDINE]
inhibition at 25 µM [1]: 56%
pIC50 [4]: 4.73
inhibition at 50 µM [7]: 71%
